Experimental data reported in patent publication US4001325A, “α-Chloroacetanilide selective herbicides” (Diamond Shamrock Corporation, priority 1973, dated 1977).

What was measured:
Barnyardgrass = test: Example 17 selective herbicidal activity in corn crop, weed kill; format: in vivo, Echinochloa crusgalli; settings: Echinochloa crus-galli, 3-4 weeks after planting; for mortality at 280.212 g/ha: 0.25 lb/A; for mortality at 560.425 g/ha: 0.5 lb/A; for mortality at 1120.85 g/ha: 1.0 lb/A; for mortality at 2241.7 g/ha: 2.0 lb/A
Excerpt: (§1) This example illustrates the selective herbicidal activity of two of the presently preferred compounds of this invention against various weed species in a corn crop.
(§2) Plots of light sandy soil, cleared of all weeds, are uniformly treated with aqueous dispersions prepared from an emulsifiable concentrate containing 2- 4 pounds of active ingredient per gallon. Diluted aqueous dispersions are applied as surface treatments at 2.0, 1.0, 0.5, and 0.25 pound of active ingredient per acre (lb/A).
(§3) The treated test plots are sown to corn and with seeds of the following weed species:
(§4) Three to four weeks after planting, the degree of damage to both the corn stands and the weed plants is assessed from a rating of 0% (no injury) to 100% (complete destruction).

Corn = test: Example 18 phytotoxic effects on crop stands in different soils; format: in vivo, field corn
Method: To further illustrate the herbicidal activity of compounds of this invention in different types of soil as would be encountered in different crop growing localities, a preemergence herbicide test is conducted generally as outlined previously herein. Two light sandy soils are employed containing 0.7% and 1.8% organic matter (O.M.), respectively, along with two loam-type, heavier soils containing either 2.0% or 5-5.5% organic matter (O.M.).
The test plots are all sprayed uniformly with formulations of the test compounds providing 2.0, 1.0, 0.5, and 0.25 pound of active chemical per acre (lb/A).
Prior to treatment, the soil plots are sown to field corn, soybean, and grain sorghum crops and seeds of barnyard-grass and yellow foxtail.
Three weeks after planting, the percent control of plant growth is rated from 0% (no injury) to 100% (total destruction). The results obtained are as follows:
Phytotoxic effects on the crop stands are similarly rated with the following results: […]

Yellow Foxtail = test: Example 17 selective herbicidal activity in corn crop, weed kill; format: in vivo, Setaria lutescens; settings: Setaria, 3-4 weeks after planting; for mortality at 280.212 g/ha: 0.25 lb/A; for mortality at 560.425 g/ha: 0.5 lb/A; for mortality at 1120.85 g/ha: 1.0 lb/A; for mortality at 2241.7 g/ha: 2.0 lb/A
Excerpt: as §1, §2, §3, §4

Johnsongrass = test: as above; format: in vivo; settings: Sorghum halepense, 3-4 weeks after planting; for mortality at 280.212 g/ha: 0.25 lb/A; for mortality at 560.425 g/ha: 0.5 lb/A; for mortality at 1120.85 g/ha: 1.0 lb/A; for mortality at 2241.7 g/ha: 2.0 lb/A
Excerpt: as §1, §2, §3, §4

Morningglory = test: as above; format: in vivo, Ipomoea sp.; settings: Ipomoea, 3-4 weeks after planting; for mortality at 280.212 g/ha: 0.25 lb/A; for mortality at 560.425 g/ha: 0.5 lb/A; for mortality at 1120.85 g/ha: 1.0 lb/A; for mortality at 2241.7 g/ha: 2.0 lb/A
Excerpt: as §1, §2, §3, §4

Goosegrass [1] = test: as above; format: in vivo, Eleusine indica; settings: 3-4 weeks after planting
Excerpt: as §1, §2, §3, §4

[2] = test system: grass species: red millet, green foxtail, Japanese millet; test: Greenhouse preemergence herbicide test, grasses; format: in vivo, Panicum milliacem, Setaria viridis, Echinochloa frumentacea; settings: pre-emergence, 336 h, two weeks after treatment; for pest or weed control at 69.4927 g/ha: 0.062 lb/A; for pest or weed control at 140.106 g/ha: 0.125 lb/A; for pest or weed control at 280.212 g/ha: 0.25 lb/A; for pest or weed control at 560.425 g/ha: 0.5 lb/A; for pest or weed control at 1120.85 g/ha: 1.0 lb/A
Method: To illustrate the preemergence herbicidal efficiency of the alkyl-substituted 2-chloro-N-propargylacetanilides of this invention, test formulations are prepared of each compound by mixing 20 ml of an acetone solution containing 0.125 g of chemical with 20 ml of water containing 0.01 g of Triton X-155 surfactant. The resultant formulations contain 3125 ppm of test compound, 50% by volume of acetone and 0.025% by weight of surfactant. Appropriate lower concentrations are obtained by diluting this formulation with surfactant-acetone solution so that the concentration of adjuvants is maintained at the original levels.
Seeds of three broadleaf and three grass species are planted in soil contained in 10 inch × 8 inch × 3 inch aluminum pans filled with 1.5 inches of composted soil. The broadleaf species are pigweed (Amaranthus retroflexus), velvetleaf (Abutilon theophrasti), and morningglory (Ipomea coccinea); the grasses are red millet (Panicum milliacem), green foxtail (Setaria viridis) and Japanese millet (Echinochloa frumentacea).
The seeded pans are sprayed so that the soil surface is uniformly covered with dilutions of the stock formulation providing dosage rates of the test compounds as shown in the following table.
Two weeks after treatment, percent control (plant kill) at each dosage rate is estimated with results as follows: […]

Giant Foxtail = test: Field preemergence test, weed control; format: in vivo; settings: 3-4 weeks after planting
Excerpt: (§5) Test plots of fertilized, light sandy soil containing 0.7% organic matter are sprayed uniformly with aqueous suspensions prepared from emulsifiable concentrates containing 12%, by weight, of the test chemicals diluted to provide dosage rates of the test compounds corresponding to 2.0, 1.0, 0.5, and 0.25 pound per acre (lb/A). The plots are then sown with seeds of the following crop plants: sweet corn, cotton (Coker 413) and soybeans, var. Davis. Seeds of the following weed plants are planted: redroot pigweed, prickly sida, common lambsquarter, goosegrass and giant foxtail.
(§6) Three to four weeks after planting, percent control (plant kill) of the test plants is estimated, from a rating of 0 which denotes no injury to the plant up to 100 which denotes complete destruction. The herbicidal action of the test compounds obtained on the weed species is as follows: […]

Redroot Pigweed = test: Field preemergence test, weed control; format: in vivo; settings: 3-4 weeks after planting
Excerpt: as §5, §6

Goosegrass [3] = test: Field preemergence test, weed control; format: in vivo; settings: 3-4 weeks after planting
Excerpt: as §5, §6

Prickly Sida = test: Field preemergence test, weed control; format: in vivo; settings: 3-4 weeks after planting
Excerpt: as §5, §6

Common Lambsquarter = test: Field preemergence test, weed control; format: in vivo; settings: 3-4 weeks after planting
Excerpt: as §5, §6

[4] = 0.5 lb/A, Heavy Soil 5-5.5% O.M.
[5] = 0.5 lb/A, Medium Soil 2.0% O.M.
[6] = 1.0 lb/A, Heavy Soil 5-5.5% O.M.
[7] = 1.0 lb/A, Medium Soil 2.0% O.M.
[8] = 2.0 lb/A, Heavy Soil 5-5.5% O.M.
[9] = 2.0 lb/A, Medium Soil 2.0% O.M.

C#CCN(C(=O)CCl)c1c(C)cccc1CC [Example 15, 2-Chloro-2'-methyl-6'-ethyl-N-propargylacetanilide]
mortality at 280.212 g/ha (Barnyardgrass): 88%
mortality at 560.425 g/ha (Barnyardgrass): 100%
mortality at 1120.85 g/ha (Barnyardgrass): 100%
mortality at 2241.7 g/ha (Barnyardgrass): 100%
% Phytotoxicity, Corn (Corn; [4]): 0%
% Phytotoxicity, Corn (Corn; [5]): 0%
% Phytotoxicity, Corn (Corn; 0.5 lb/A, Sand 0.7% O.M.): 0%
% Phytotoxicity, Corn (Corn; 0.5 lb/A, Sand 1.8% O.M.): 0%
% Phytotoxicity, Corn (Corn; [6]): 0%
% Phytotoxicity, Corn (Corn; [7]): 10%
% Phytotoxicity, Corn (Corn; 1.0 lb/A, Sand 0.7% O.M.): 0%
% Phytotoxicity, Corn (Corn; 1.0 lb/A, Sand 1.8% O.M.): 0%
% Phytotoxicity, Corn (Corn; [8]): 10%
% Phytotoxicity, Corn (Corn; [9]): 55%
% Phytotoxicity, Corn (Corn; 2.0 lb/A, Sand 0.7% O.M.): 10%
% Phytotoxicity, Corn (Corn; 2.0 lb/A, Sand 1.8% O.M.): 0%
mortality at 280.212 g/ha (Yellow Foxtail): 82%
mortality at 560.425 g/ha (Yellow Foxtail): 97%
mortality at 1120.85 g/ha (Yellow Foxtail): 100%
mortality at 2241.7 g/ha (Yellow Foxtail): 100%
mortality at 280.212 g/ha (Johnsongrass): 0%
mortality at 560.425 g/ha (Johnsongrass): 73%
mortality at 1120.85 g/ha (Johnsongrass): 100%
mortality at 2241.7 g/ha (Johnsongrass): 100%
mortality at 280.212 g/ha (Morningglory): 0%
mortality at 560.425 g/ha (Morningglory): 0%
mortality at 1120.85 g/ha (Morningglory): 0%
mortality at 2241.7 g/ha (Morningglory): 6%
% Weed Kill, Goosegrass (Goosegrass [1]; 0.25 lb/A): 82%
% Weed Kill, Goosegrass (Goosegrass [1]; 0.5 lb/A): 100%
% Weed Kill, Goosegrass (Goosegrass [1]; 1.0 lb/A): 100%
% Weed Kill, Goosegrass (Goosegrass [1]; 2.0 lb/A): 100%
pest or weed control at 69.4927 g/ha [2]: 0%
pest or weed control at 140.106 g/ha [2]: 70%
pest or weed control at 280.212 g/ha [2]: 85%
pest or weed control at 560.425 g/ha [2]: 98%
pest or weed control at 1120.85 g/ha [2]: 99%
% Weed Control, Giant Foxtail (Giant Foxtail; 0.25 lb/A): 47%
% Weed Control, Giant Foxtail (Giant Foxtail; 0.5 lb/A): 78%
% Weed Control, Giant Foxtail (Giant Foxtail; 1.0 lb/A): 97%
% Weed Control, Giant Foxtail (Giant Foxtail; 2.0 lb/A): 100%
% Weed Control, Redroot Pigweed (Redroot Pigweed; 0.25 lb/A): 65%
% Weed Control, Redroot Pigweed (Redroot Pigweed; 0.5 lb/A): 89%
% Weed Control, Redroot Pigweed (Redroot Pigweed; 1.0 lb/A): 100%
% Weed Control, Redroot Pigweed (Redroot Pigweed; 2.0 lb/A): 100%
% Weed Control, Goosegrass (Goosegrass [3]; 0.25 lb/A): 87%
% Weed Control, Goosegrass (Goosegrass [3]; 0.5 lb/A): 97%
% Weed Control, Goosegrass (Goosegrass [3]; 1.0 lb/A): 100%
% Weed Control, Goosegrass (Goosegrass [3]; 2.0 lb/A): 100%
% Weed Control, Prickly Sida (Prickly Sida; 0.25 lb/A): 0%
% Weed Control, Prickly Sida (Prickly Sida; 0.5 lb/A): 55%
% Weed Control, Prickly Sida (Prickly Sida; 1.0 lb/A): 93%
% Weed Control, Prickly Sida (Prickly Sida; 2.0 lb/A): 97%
% Weed Control, Common Lambsquarter (Common Lambsquarter; 0.25 lb/A): 95%
% Weed Control, Common Lambsquarter (Common Lambsquarter; 0.5 lb/A): 98%
% Weed Control, Common Lambsquarter (Common Lambsquarter; 1.0 lb/A): 100%
% Weed Control, Common Lambsquarter (Common Lambsquarter; 2.0 lb/A): 100%

C#CCN(C(=O)CCl)c1c(CC)cccc1CC [Example 9, 2-Chloro-2',6'-diethyl-N-propargylacetanilide]
mortality at 280.212 g/ha (Barnyardgrass): 68%
mortality at 560.425 g/ha (Barnyardgrass): 98%
mortality at 1120.85 g/ha (Barnyardgrass): 98%
mortality at 2241.7 g/ha (Barnyardgrass): 100%
% Phytotoxicity, Corn (Corn; [4]): 0%
% Phytotoxicity, Corn (Corn; [5]): 0%
% Phytotoxicity, Corn (Corn; 0.5 lb/A, Sand 0.7% O.M.): 0%
% Phytotoxicity, Corn (Corn; 0.5 lb/A, Sand 1.8% O.M.): 0%
% Phytotoxicity, Corn (Corn; [6]): 0%
% Phytotoxicity, Corn (Corn; [7]): 0%
% Phytotoxicity, Corn (Corn; 1.0 lb/A, Sand 0.7% O.M.): 0%
% Phytotoxicity, Corn (Corn; 1.0 lb/A, Sand 1.8% O.M.): 0%
% Phytotoxicity, Corn (Corn; [8]): 10%
% Phytotoxicity, Corn (Corn; [9]): 10%
% Phytotoxicity, Corn (Corn; 2.0 lb/A, Sand 0.7% O.M.): 0%
% Phytotoxicity, Corn (Corn; 2.0 lb/A, Sand 1.8% O.M.): 0%
mortality at 280.212 g/ha (Yellow Foxtail): 80%
mortality at 560.425 g/ha (Yellow Foxtail): 95%
mortality at 1120.85 g/ha (Yellow Foxtail): 100%
mortality at 2241.7 g/ha (Yellow Foxtail): 100%
mortality at 280.212 g/ha (Johnsongrass): 0%
mortality at 560.425 g/ha (Johnsongrass): 37%
mortality at 1120.85 g/ha (Johnsongrass): 80%
mortality at 2241.7 g/ha (Johnsongrass): 100%
mortality at 280.212 g/ha (Morningglory): 0%
mortality at 560.425 g/ha (Morningglory): 0%
mortality at 1120.85 g/ha (Morningglory): 0%
mortality at 2241.7 g/ha (Morningglory): 3%
% Weed Kill, Goosegrass (Goosegrass [1]; 0.25 lb/A): 87%
% Weed Kill, Goosegrass (Goosegrass [1]; 0.5 lb/A): 100%
% Weed Kill, Goosegrass (Goosegrass [1]; 1.0 lb/A): 100%
% Weed Kill, Goosegrass (Goosegrass [1]; 2.0 lb/A): 100%
pest or weed control at 69.4927 g/ha [2]: 85%
pest or weed control at 140.106 g/ha [2]: 95%
pest or weed control at 280.212 g/ha [2]: 95%
pest or weed control at 560.425 g/ha [2]: 90%
pest or weed control at 1120.85 g/ha [2]: 95%
% Weed Control, Giant Foxtail (Giant Foxtail; 0.25 lb/A): 42%
% Weed Control, Giant Foxtail (Giant Foxtail; 0.5 lb/A): 85%
% Weed Control, Giant Foxtail (Giant Foxtail; 1.0 lb/A): 97%
% Weed Control, Giant Foxtail (Giant Foxtail; 2.0 lb/A): 100%
% Weed Control, Redroot Pigweed (Redroot Pigweed; 0.25 lb/A): 75%
% Weed Control, Redroot Pigweed (Redroot Pigweed; 0.5 lb/A): 93%
% Weed Control, Redroot Pigweed (Redroot Pigweed; 1.0 lb/A): 100%
% Weed Control, Redroot Pigweed (Redroot Pigweed; 2.0 lb/A): 100%
% Weed Control, Goosegrass (Goosegrass [3]; 0.25 lb/A): 94%
% Weed Control, Goosegrass (Goosegrass [3]; 0.5 lb/A): 98%
% Weed Control, Goosegrass (Goosegrass [3]; 1.0 lb/A): 100%
% Weed Control, Goosegrass (Goosegrass [3]; 2.0 lb/A): 100%
% Weed Control, Prickly Sida (Prickly Sida; 0.25 lb/A): 0%
% Weed Control, Prickly Sida (Prickly Sida; 0.5 lb/A): 80%
% Weed Control, Prickly Sida (Prickly Sida; 1.0 lb/A): 42%
% Weed Control, Prickly Sida (Prickly Sida; 2.0 lb/A): 93%
% Weed Control, Common Lambsquarter (Common Lambsquarter; 0.25 lb/A): 95%
% Weed Control, Common Lambsquarter (Common Lambsquarter; 0.5 lb/A): 100%
% Weed Control, Common Lambsquarter (Common Lambsquarter; 1.0 lb/A): 100%
% Weed Control, Common Lambsquarter (Common Lambsquarter; 2.0 lb/A): 100%
